Test results reported in patent US10428083B2, “Heterocyclylmethyl-thienouracile as antagonists of the adenosine-A2B-receptor” (BAYER PHARMA AKTIENGESELLSCHAFT, priority 2015, dated 2019).

Tests used:
[1] = test system: bladder tumours and breast tumours; conditions: bladder and breast tumour animal models; cited from earlier work
[2] = test system: IL-6 release by human fibroblast cell line LL29; assay: NECA-induced IL-6 release by LL29 fibroblasts (ELISA); type: cell-based; conditions: LL29 cells, NECA 10 μM, 24 hours incubation, IL-6 in supernatant by ELISA
Description: B-3. Measurement of NECA-Induced IL-6 Release by LL29 Fibroblasts
Stimulation of fibroblasts with adenosine or the adenosine analog 5′-N-ethylcarboxamidoadenosine (NECA) leads to release of the pro-inflammatory and pro-fibrotic cytokine IL-6 which can be prevented by inhibition of the A2b receptor.
Accordingly, confluent cells of the human fibroblast cell line LL29 were treated with the test substances and stimulated with NECA (10 μM). After an incubation time of 24 hours, the cell supernatant is removed and human IL-6 in the cell supernatant is determined by ELISA (Quantikine® IL6 ELISA, R&D Systems, Minneapolis, USA).
Table 3 below lists the IC50 values obtained in this way for inhibition of IL-6 release for some working examples: […]

[3] = molecular target: human adenosine A2b receptor (Homo sapiens (Human), UniProt P29275); assay: Cellular in vitro reporter gene test for A2b receptor activity (CHO-K1, CRE-luciferase, NECA stimulation); type: cell-based; conditions: recombinant CHO-K1 cell line, CRE-luciferase reporter, antagonism of EC50 concentration of NECA; in some cases means of several determinations, rounded to two significant figures; read-out: A2b receptor IC50
human adenosine A2b receptor, sequence (P29275 whole entry): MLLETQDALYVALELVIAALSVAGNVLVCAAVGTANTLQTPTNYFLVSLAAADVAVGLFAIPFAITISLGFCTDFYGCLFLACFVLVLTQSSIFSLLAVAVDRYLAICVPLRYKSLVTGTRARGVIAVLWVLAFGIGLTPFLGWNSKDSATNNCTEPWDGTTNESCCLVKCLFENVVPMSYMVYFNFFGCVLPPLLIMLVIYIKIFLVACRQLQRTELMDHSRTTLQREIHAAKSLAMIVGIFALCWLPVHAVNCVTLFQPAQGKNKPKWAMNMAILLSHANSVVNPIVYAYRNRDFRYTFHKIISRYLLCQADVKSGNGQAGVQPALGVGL
How it was run: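 CHO-K1 cells with CRE-driven luciferase; antagonists co-incubated with NECA at its EC50, determined in a pre-experiment on each test day. Luciferase read by luminescence 3 h after NECA addition.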

colon cancer cell lines = conditions: A2b receptor antagonist; cited from earlier work
[4] = test system: human pulmonary arterial endothelial and smooth muscle cells; conditions: stimulation with adenosine analogue; cited from earlier work
human fibroblasts = conditions: stimulation with adenosine analogue; increased by hypoxia; cited from earlier work
[5] = test system: prostate cancer cell lines; conditions: A2b receptor antagonist; cited from earlier work
melanoma animal models = conditions: cited from earlier work

SMILES: CCCn1c(=O)n(C2CC2)c(=O)c2[nH]c(-c3ccc(N(CC)C(=O)c4cccnc4)nc3)nc21 [ATL801]
- metastasis [1]: distinct reduction in metastasis
- tumour growth [1]: slowing of tumour growth

SMILES: COCCn1c(=O)n(CCc2ccccc2)c(=O)c2c(C)c(CN3CCCC3=O)sc21 [Example 3, 1-(2-Methoxyethyl)-5-methyl-6-[(2-oxopyrrolidin-1-yl)methyl]-3-(2-phenylethyl)thieno[2,3-d]pyrimidine-2,4(1H,3H)-dione]
- IC50 [2]: 15 nM
- IC50 [3]: 4.4 nM

SMILES: COCCn1c(=O)n(CCc2ccccc2)c(=O)c2c(C)c(CN3CCOC3=O)sc21 [Example 20, 1-(2-Methoxyethyl)-5-methyl-6-[(2-oxo-,3-oxazolidin-3-yl)methyl]-3-(2-phenylethyl)thieno[2,3-d]pyrimidine-2,4(1H,3H)-dione]
- IC50 [2]: 5 nM
- IC50 [3]: 3.6 nM

SMILES: COCCn1c(=O)n(CCc2ccccc2)c(=O)c2c(C)c(CN3CCN(C)C3=O)sc21 [Example 102, 1-(2-Methoxyethyl)-5-methyl-6-[(3-methyl-2-oxoimidazolidin-1-yl)methyl]-3-(2-phenylethyl)thieno[2,3-d]pyrimidine-2,4(1H,3H)-dione]
- IC50 [2]: 5 nM
- IC50 [3]: 4.5 nM

SMILES: CCCn1c(=O)c2[nH]c(-c3ccc(OCC(=O)Nc4ccc(C#N)cc4)cc3)nc2n(CCC)c1=O [MRS1754]
- growth of colon cancer cell lines (colon cancer cell lines): reduced growth

SMILES: CCNC(=O)[C@H]1O[C@@H](n2cnc3c(N)ncnc32)[C@H](O)[C@@H]1O [NECA, 5′-(N-ethylcarboxamido)adenosine]
- release of ET-1 and IL-6 [4]: release of ET-1 and IL-6
- release of IL-6 (human fibroblasts): release of IL-6

SMILES: CCCn1c(=O)[nH]c2nc(-c3ccc(S(=O)(=O)N4CCN(c5ccc(Cl)cc5)CC4)cc3)[nH]c2c1=O [PSB603]
- growth of several prostate cancer cell lines [5]: reduces the growth
- tumour growth and metastasis (melanoma animal models): reduction in tumour growth and metastasis
